Test results from patent US8642508B2, “Complex for use in stabilizing herbicidal compositions and methods for synthesizing and using” (Bayer Cropscience LP, priority 2005, dated 2014).

Assays:
[1] = Long-term storage stability 1 year room temperature, Example 7 emulsifiable concentrate (triethanolamine + DBSCa); assay type: physicochemical; conditions: Example 7 formulation; 1 year @ room temp
Procedure: In this example, an emulsifiable concentrate of fenoxaprop p-ethyl, mefenpyr diethyl, pyrasulfotole and bromoxynil mixed esters was prepared. Triethanolamine, a buffer that is capable of hydrogen bonding, was selected as the buffer. Dodecylbenzenesulfontate calcium, also known as DBSCa was also used to provide a calcium cation for the complex. The mixture of Table 13 was prepared by mixing the liquid ingredients, then the solid ingredients at 50° C.
The mixture was tested for long-term storage stability by subjecting separate samples to room temperatures for 1 year.

[2] = Long-term storage stability, Comparative Example 5 emulsifiable concentrate with bromoxynil mixed esters (triethylamine buffer); assay type: physicochemical; conditions: Comparative Example 5 formulation
Procedure: An emulsifiable concentrate of fenoxaprop p-ethyl, mefenpyr diethyl, pyrasulfotole and bromoxynil mixed esters was prepared. Triethylamine, a buffer that is not capable of complexing was selected as the buffer. The mixture of Table 9 was prepared by mixing the liquid ingredients, then the solid ingredients at 50° C.
The mixture was tested for long-term storage stability by subjecting separate samples to different temperatures for eight weeks.

CCCCCCC(=O)Oc1c(Br)cc(C#N)cc1Br [Bromoxynil Heptanoate Esters, bromoxynil heptanoate]
Avg. Wt % active ingredient [1]: 12.47 Wt % | Change from expected [1]: −3.03%

CCCCCCCC(=O)Oc1c(Br)cc(C#N)cc1Br [Bromoxynil Octanoate, bromoxynil octanoate]
Avg. Wt % active ingredient ([2]; 8 weeks @ 0° C.): 5.67 Wt % | Avg. Wt % active ingredient ([2]; 8 weeks @ 40° C.): 5.02 Wt % | change from 0° C. ([2]; 8 weeks @ 40° C.): −11.52% | Avg. Wt % active ingredient ([2]; 8 weeks @ room temp.): 5.65 Wt % | change from 0° C. ([2]; 8 weeks @ room temp.): −0.41% | Avg. Wt % active ingredient [1]: 13.08 Wt % | Change from expected [1]: −3.083%
